According to the supplement of paper PMC11451515:

Key:
Details in all cases: 48 h
SEM cells [1] = experiment: cell viability relative to DMSO control; higher = less cytotoxic
Summary of the method: (§1)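 Library compounds in DMSO were pin-dosed in an 11-point threefold series (47 μM to 0.79 nM) onto leukemia cells in 1536-well plates (5 μl). Plates held 500 cells/well of NOMO1 or SEM or 1000 cells/well of P12-Ichikawa, each adapted for at least four passages in each medium. Luminescence was read with CellTiter-Glo One after 48 h at 37°C. Viability means the per-plate percentage relative to DMSO wells, using cell-free wells as background.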

NOMO1 [2] = experiment: as above
Summary of the method: as §1

P12-Ichikawa [3] = experiment: as above
Summary of the method: as §1

SEM cells [4] = experiment: AUC of viability dose-response curve (% viability x log10 dose units); higher = less sensitive
Summary of the method: (§2)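 Medium-adapted leukemia cells in 1536-well plates, at 500 or 1000 cells/well, were incubated for 48 h at 37°C with library compounds in DMSO at 11 threefold doses from 47 μM to 0.79 nM. CellTiter-Glo One luminescence normalised per plate to DMSO and cell-free wells was fitted with a four-parameter log-logistic model over log10 doses. Area under the curve was integrated from this fit by trapezoidal rule, with curves beyond full viability scaled and failed quality-control curves removed.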

NOMO1 [5] = experiment: as above
Summary of the method: as §2

P12-Ichikawa [6] = experiment: as above
Summary of the method: as §2

Nc1ncnc2c1ncn2[C@@H]1O[C@H](CO)C[C@H]1O
cell viability [%]
Details	NOMO1 [2]	P12-Ichikawa [3]	SEM cells [1]
HPLM + 10% dialyzed FBS, 0.000781 µM	105	92.5	95.8
HPLM + 10% dialyzed FBS, 0.00234 µM	97.1	96.4	98
HPLM + 10% dialyzed FBS, 0.00702 µM	97.1	92.8	111
HPLM + 10% dialyzed FBS, 0.0211 µM	102	93.1	106
HPLM + 10% dialyzed FBS, 0.0632 µM	94.3	98.8	111
HPLM + 10% dialyzed FBS, 0.19 µM	101	94.1	101
HPLM + 10% dialyzed FBS, 0.569 µM	73	93.1	103
HPLM + 10% dialyzed FBS, 1.71 µM	87.4	88.8	97.4
HPLM + 10% dialyzed FBS, 5.12 µM	95.2	92.2	79.7
HPLM + 10% dialyzed FBS, 15.4 µM	81.7	89.3	59.4
HPLM + 10% dialyzed FBS, 46.1 µM	79.8	89	41.2
RPMI 5 mM glucose + 10% FBS, 0.000781 µM	85.7	87.9	95
RPMI 5 mM glucose + 10% FBS, 0.00234 µM	87	104	96
RPMI 5 mM glucose + 10% FBS, 0.00702 µM	94.7	94	99.6
RPMI 5 mM glucose + 10% FBS, 0.0211 µM	87.9	94.4	98.7
RPMI 5 mM glucose + 10% FBS, 0.0632 µM	93	87.7	104
RPMI 5 mM glucose + 10% FBS, 0.19 µM	84.4	96	93.2
RPMI 5 mM glucose + 10% FBS, 0.569 µM	88	93	95.4
RPMI 5 mM glucose + 10% FBS, 1.71 µM	80.7	93.5	93.6
RPMI 5 mM glucose + 10% FBS, 5.12 µM	91.1	85.3	97.8
RPMI 5 mM glucose + 10% FBS, 15.4 µM	82.5	86.8	73
RPMI 5 mM glucose + 10% FBS, 46.1 µM	92.4	87.6	67.7
RPMI 5 mM glucose + 10% dialyzed FBS, 0.000781 µM	103	83.8	86.7
RPMI 5 mM glucose + 10% dialyzed FBS, 0.00234 µM	109	90.1	93.4
RPMI 5 mM glucose + 10% dialyzed FBS, 0.00702 µM	94.9	97.7	87.9
RPMI 5 mM glucose + 10% dialyzed FBS, 0.0211 µM	103	90.9	99.7
RPMI 5 mM glucose + 10% dialyzed FBS, 0.0632 µM	103	87.4	96.1
RPMI 5 mM glucose + 10% dialyzed FBS, 0.19 µM	90.2	91.2	91.7
RPMI 5 mM glucose + 10% dialyzed FBS, 0.569 µM	87.8	94.5	95.6
RPMI 5 mM glucose + 10% dialyzed FBS, 1.71 µM	92.2	87.6	89.6
RPMI 5 mM glucose + 10% dialyzed FBS, 5.12 µM	85.6	86.1	91.1
RPMI 5 mM glucose + 10% dialyzed FBS, 15.4 µM	91.2	89.6	65
RPMI 5 mM glucose + 10% dialyzed FBS, 46.1 µM	92.1	92.3	41.7

AUC of viability dose-response curve
Details	NOMO1 [5]	P12-Ichikawa [6]	SEM cells [4]
HPLM + 10% dialyzed FBS	439	442	426
RPMI 5 mM glucose + 10% FBS	420	439	445
RPMI 5 mM glucose + 10% dialyzed FBS	445	430	416
